The values below come from article PMC5590075, “Synthesis, Antimicrobial, and Antioxidant Activities of Chalcogen-Containing Nitrone Derivatives from (R)-citronellal” (Medicines, 2017).

SMILES strings stand for the structures. Values after ≈ are worked out from the molar mass of the structure shown. Where two headings read alike, the source gives them in different places.

Series [1] concerns Bacillus cereus ATCC 11778. The series is described as follows: MIC and MBC, macro dilution tube method. It counts as cell-based. The source says:
(§1) To evaluate the antimicrobial potential of the synthesized compounds, the following reference strains of bacteria, that are economically important in foods, were employed: Gram-positive Listeria monocytogenes ATCC 7644, Staphylococcus aureus ATCC 25923, and Bacillus cereus ATCC 11778; Gram-negative Salmonella Typhimurium ATCC 14028, Escherichia coli O157: H7 NCTC 12900 and the clinically important Pseudomonas aeruginosa ATCC 15442.
(§2) The antimicrobial activity assay using the disk diffusion test was realized using the methodology that is recommended by the Clinical Laboratory Standards Institute (CLSI). The determination of the minimum inhibitory concentration (MIC) and minimum bactericidal concentration (MBC) was performed using the macro dilution tube method, in accordance with Rota et al., with modifications. Details of these assays are provided in the Supplemental Material. […]
(§3) 2.2. Determination of the minimum inhibitory concentration (MIC) and minimum bactericidal concentration
(§4) The MIC was determined using the macro dilution tube method, in accordance with Rota et al.
(§5) [5], with modifications. The tested concentrations were 20, 18, 15, 12, 10, 7 and 5 μL.mL‐1 of each compound. In a tube with 1 mL of MH broth, was inoculated 105 UFC.mL‐1, the compound in a predetermined concentration and, to facilitate the solubility, 2 drops of TWEEN 80. The mixture was incubated at 37 °C for 24 h under stirring (150 rpm). As the positive control, MH broth and inoculum concentration in 105 UFC.mL‐1 and as the negative control MH, the inoculum concentration in 105 UFC∙mL‐1 and streptomycin (10 μg) were used. MIC was defined as the lowest concentration of […]
(§6) After 24 h, tubes with no visible growth were seeded in a […] TSA‐YE tube and incubated at 37 °C for 24 h. The MBC is the lowest concentration of compound where 99.9% of the initially inoculated cells were killed. […]
(§7) 2.4. Radical Scavenging Activity […]
(§8) The ABTS radical scavenging activity was determined according to the method described by Erel. Different concentrations of compounds 5a–d and 10 (10–500 μ M) were mixed with the ABTS+ solution, and the decrease in the absorbance at 734 nm was recorded.

Series [2] concerns Escherichia coli O157: H7 NCTC 12900. The series is described as follows: MIC and MBC, macro dilution tube method. The series is classed as cell-based. To be noted: for MIC: E. coli O157:H7, 10^5 CFU.mL^−1, 24 h.
Text: as §1, §2, §3, §4, §5, §6, §7, §8

The subject of series [3] is Staphylococcus aureus ATCC 25923. Nature of the series: MIC and MBC, macro dilution tube method. It counts as cell-based. Particulars: S. mureus (so in the source); for MBC: 10^5 CFU.mL^−1; for MIC: 10^5 CFU.mL^−1, 24 h.
Text: as §1, §2, §3, §4, §5, §6, §7, §8

A short description of a further series: ABTS radical scavenging. Particulars: mean ± SD (n = 3); for IC50: read-out: ABTS radical scavenging IC50 (concentration compound required for 50% scavenging). How it is done:
The antioxidant properties of the synthesized compounds (5a–d and 10) were evaluated by three different methods in vitro: DPPH (1,1-diphenyl-2-picryl-hydrazyl) and ABTS^+ (2,2′-azino-bis(3-ethylbenzthiazoline-6-sulfonic acid) radical scavenging ability and ferric ion reducing antioxidant power (FRAP). All drugs were dissolved in dimethyl sulfoxide (DMSO) at concentrations of 1–500 µM. These assays were performed according to the literature and details of these experiments are described elsewhere (see the ‘Results and Discussion’ section for the references). […]
2.3. Antioxidant activity assays
The antioxidant properties of the synthesized compounds were evaluated by three different methods in vitro: DPPH and ABTS+ radical scavenging activity and ferric ion reducing antioxidant power (FRAP). All drugs were dissolved in dimethyl sulfoxide (DMSO). The experimental results were given as the means ± standard deviation (SD) to show the variations among the groups. The statistical analysis was performed using one‐way analysis of variance (ANOVA) followed by Newman‐Keuls multiple comparison test when appropriate. The differences were considered statistically significant at a probability of less than 5% (p < 0.05). All tests were performed at least three times in duplicate. The IC50 values (the concentration of sample required to scavenge 50% of the free radicals) were calculated from the graph of the scavenging effect percentage versus the […]
2.4. Radical Scavenging Activity
To determine if compounds 5a–d and 10 present in vitro antioxidant activity against free radicals, DPPH and ABTS+ scavenging capability were evaluated at different concentrations. […]
The ABTS radical scavenging activity was determined according to the method described by Erel. Different concentrations of compounds 5a–d and 10 (10–500 μ M) were mixed with the ABTS+ solution, and the decrease in the absorbance at 734 nm was recorded. […]
values, as calculated by the following equation:
I% = [(Ac−As/Ac) × 100] (1)
3. Ferric ion reducing antioxidant power (FRAP) […]
reducing capacity of compounds 5a–d and 10.
[8] with slight modifications.
They were homogenized in a 0.1 M
The supernatants were used for determination of the δ‐ALAD activity. […]
and 500 μL of distilled water. […]
and the absorbance was read at 555 nm.

The next series has as its target T1, δ-ALA-D (Mus musculus, UniProt P10518).
T1 sequence (P10518 1-330): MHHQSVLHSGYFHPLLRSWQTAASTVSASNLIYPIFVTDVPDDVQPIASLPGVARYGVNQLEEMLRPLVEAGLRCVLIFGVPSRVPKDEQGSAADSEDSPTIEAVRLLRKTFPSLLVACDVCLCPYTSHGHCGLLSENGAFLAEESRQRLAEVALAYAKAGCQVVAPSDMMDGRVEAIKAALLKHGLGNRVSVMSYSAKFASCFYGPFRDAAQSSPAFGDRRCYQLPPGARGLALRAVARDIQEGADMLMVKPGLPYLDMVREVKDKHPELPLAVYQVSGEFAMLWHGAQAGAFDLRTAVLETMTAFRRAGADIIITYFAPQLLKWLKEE
The series is described as follows: δ-ALA-D activity in tissue supernatants (in vitro toxicity). To be noted: mean ± SD (n = 3).

In series [4] the test system is Listeria monocytogenes ATCC 7644. Nature of the series: MIC and MBC, macro dilution tube method. The series is classed as cell-based. To be noted: L. monocytogenes.
Text: as §1, §2, §3, §4, §5, §6, §7, §8

Setting [5] is: B. mereus (so in the source), 10^5 CFU.mL^−1.
The mark [6] stands for this setting: B. mereus (so in the source), 10^5 CFU.mL^−1, 24 h.
Setting [7] is: E. coli O157:H7, 10^5 CFU.mL^−1.

For `CC(C)=CCCC(C)C(/C=[N+](\C)[O-])Sc1ccccc1` (stereo not drawn) [5a, (E)-N,3,7-Trimethyl-2-(phenylthio)oct-6-en-1-imine oxide], the MBC in series [1] (setting [5]) is 0.59 mM.mL^−1; in series [1] (Bacillus cereus, ATCC11778), 590 µM (≈ 172 µg/mL); in series [2] (setting [7]), over 0.65 mM.mL^−1; in series [3], over 0.65 mM.mL^−1. In addition, the MIC was 0.48 mM.mL^−1 in series [1] (setting [6]); 480 µM (≈ 140 µg/mL) in series [1] (Bacillus cereus, ATCC11778, read-out: minimal inhibitory concentration (MIC)); over 0.65 mM.mL^−1 in series [2]; over 0.65 mM.mL^−1 in series [3]. The “ABTS radical scavenging, percentage of inhibition in relation to control” value is listed as 11.74 ± 0.47 % in the series “ABTS radical scavenging” (50 μM), 22.84 ± 1.02 % in the series “ABTS radical scavenging” (100 μM) and 77.61 ± 0.81 % in the series “ABTS radical scavenging” (500 μM). For the same compound, the IC50 in “ABTS radical scavenging” is 297 ± 1 µM. The δ-ALA-D activity on δ-ALA-D (Brain, 10 μM) is 0.44 ± 0.09 nmol PBG.mg.tn‐1.h‐1; at δ-ALA-D (Brain, 50 μM), 0.42 ± 0.10 nmol PBG.mg.tn‐1.h‐1; on δ-ALA-D (Brain, 100 μM), 0.40 ± 0.11 nmol PBG.mg.tn‐1.h‐1; on δ-ALA-D (Brain, 500 μM), 0.36 ± 0.10 nmol PBG.mg.tn‐1.h‐1; on δ-ALA-D (Kidney, 10 μM), 1.17 ± 0.05 nmol PBG.mg.tn‐1.h‐1; on δ-ALA-D (Kidney, 50 μM), 1.17 ± 0.07 nmol PBG.mg.tn‐1.h‐1. Also, the δ-ALA-D activity worked out at 1.09 ± 0.08 nmol PBG.mg.tn‐1.h‐1 at δ-ALA-D (Kidney, 100 μM); 0.90 ± 0.08 nmol PBG.mg.tn‐1.h‐1 at δ-ALA-D (Kidney, 500 μM); 4.99 ± 0.84 nmol PBG.mg.tn‐1.h‐1 at δ-ALA-D (Liver, 10 μM); 4.87 ± 0.67 nmol PBG.mg.tn‐1.h‐1 at δ-ALA-D (Liver, 50 μM); 4.71 ± 0.89 nmol PBG.mg.tn‐1.h‐1 at δ-ALA-D (Liver, 100 μM); 4.46 ± 0.80 nmol PBG.mg.tn‐1.h‐1 on δ-ALA-D (Liver, 500 μM).

`CC(C)=CCCC(C)(C/C=[N+](\C)[O-])Sc1ccccc1` (stereo not drawn) [5c, (E)-N,3,7-trimethyl-3-(phenylthio)oct-6-en-1-imine oxide]: the MBC in series [1] (setting [5]) is 0.69 mM.mL^−1; in series [2] (setting [7]), 0.52 mM.mL^−1; in series [2] (Escherichia coli, NCTC12900, read-out: minimal bactericidal concentration (MBC)), 520 µM (≈ 152 µg/mL); in series [4] (10^5 CFU.mL^−1), over 0.69 mM.mL^−1; in series [3], 0.69 mM.mL^−1. The MIC worked out at 0.69 mM.mL^−1 in series [1] (setting [6]), 0.52 mM.mL^−1 in series [2] and 0.61 mM.mL^−1 in series [3]. Besides, the “ABTS radical scavenging, percentage of inhibition in relation to control” value in “ABTS radical scavenging” (50 μM) was determined as 4.18 ± 1.23%; in the series “ABTS radical scavenging” (100 μM) it was 11.60 ± 1.50 %; in the series “ABTS radical scavenging” (500 μM), 59.51 ± 4.16 %. Also, the IC50 in “ABTS radical scavenging” worked out at 419 ± 35.8 µM. For the same compound, the δ-ALA-D activity at δ-ALA-D (Brain, 10 μM) is listed as 0.30 ± 0.10 nmol PBG.mg.tn‐1.h‐1; on δ-ALA-D (Brain, 50 μM), 0.28 ± 0.09 nmol PBG.mg.tn‐1.h‐1; on δ-ALA-D (Brain, 100 μM), 0.26 ± 0.08 nmol PBG.mg.tn‐1.h‐1; at δ-ALA-D (Brain, 500 μM) it was 0.26 ± 0.07 nmol PBG.mg.tn‐1.h‐1; at δ-ALA-D (Kidney, 10 μM) it was 1.10 ± 0.12 nmol PBG.mg.tn‐1.h‐1; on δ-ALA-D (Kidney, 50 μM), 1.02 ± 0.12 nmol PBG.mg.tn‐1.h‐1. Also, the δ-ALA-D activity at δ-ALA-D (Kidney, 100 μM) worked out at 0.99 ± 0.10 nmol PBG.mg.tn‐1.h‐1; on δ-ALA-D (Kidney, 500 μM), 0.90 ± 0.07 nmol PBG.mg.tn‐1.h‐1; at δ-ALA-D (Liver, 10 μM), 4.63 ± 0.82 nmol PBG.mg.tn‐1.h‐1; at δ-ALA-D (Liver, 50 μM) it was 4.31 ± 0.81 nmol PBG.mg.tn‐1.h‐1; at δ-ALA-D (Liver, 100 μM) it was 4.12 ± 0.90 nmol PBG.mg.tn‐1.h‐1; at δ-ALA-D (Liver, 500 μM), 3.88 ± 0.87 nmol PBG.mg.tn‐1.h‐1.

For `CC(C)=CCCC(C)C/C=[N+](\C)[O-]` (stereo not drawn) [5d, (E)-N,3,7-trimethyloct-6-en-1-imine oxide], the MBC was over 1.26 mM.mL^−1 in series [1] (setting [5]) and 1.26 mM.mL^−1 in series [2] (setting [7]). Also, the MIC in series [1] (setting [6]) is given as over 1.26 mM.mL^−1; in series [2], 1.13 mM.mL^−1; in series [4] (10^5 CFU.mL^−1, 24 h) it was 1.26 mM.mL^−1; in series [3] it was 1.26 mM.mL^−1. For the same compound, the “ABTS radical scavenging, percentage of inhibition in relation to control” value in “ABTS radical scavenging” (50 μM) is listed as 0.30 ± 0.33%; in the series “ABTS radical scavenging” (100 μM), 3.10 ± 0.48 %; in the series “ABTS radical scavenging” (500 μM), 17.05 ± 0.47 %. In addition, the δ-ALA-D activity was found to be 0.29 ± 0.09 nmol PBG.mg.tn‐1.h‐1 on δ-ALA-D (Brain, 10 μM); 0.27 ± 0.10 nmol PBG.mg.tn‐1.h‐1 at δ-ALA-D (Brain, 50 μM); 0.26 ± 0.09 nmol PBG.mg.tn‐1.h‐1 at δ-ALA-D (Brain, 100 μM); 0.24 ± 0.08 nmol PBG.mg.tn‐1.h‐1 at δ-ALA-D (Brain, 500 μM); 1.02 ± 0.11 nmol PBG.mg.tn‐1.h‐1 at δ-ALA-D (Kidney, 10 μM); 0.96 ± 0.12 nmol PBG.mg.tn‐1.h‐1 at δ-ALA-D (Kidney, 50 μM). Moreover, the δ-ALA-D activity is 0.89 ± 0.12 nmol PBG.mg.tn‐1.h‐1 at δ-ALA-D (Kidney, 100 μM); 0.72 ± 0.07 nmol PBG.mg.tn‐1.h‐1 on δ-ALA-D (Kidney, 500 μM); 4.50 ± 0.60 nmol PBG.mg.tn‐1.h‐1 at δ-ALA-D (Liver, 10 μM); 4.22 ± 0.78 nmol PBG.mg.tn‐1.h‐1 at δ-ALA-D (Liver, 50 μM); 3.54 ± 0.84 nmol PBG.mg.tn‐1.h‐1 at δ-ALA-D (Liver, 100 μM); 2.84 ± 0.57 nmol PBG.mg.tn‐1.h‐1 on δ-ALA-D (Liver, 500 μM).
